pIC50: −log10 of the molar value. Where “and” joins values, the source holds several entries; their conditions need not be identical. Identical values can stand only once.
Tested on: 521955-158-R6-J3-PDC complex spheroid growth, % test/control
Experiment: Anticancer human tumor 521955-158-R6-J3-PDC patient-derived pancreatic carcinoma cell line growth inhibition [Asc]
Settings: for viability, T/C: stronger effect = lower value
Outline: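 Concentration series start at each agent's clinical Cmax, or at 10 microM when none is established, and drop in half-log steps; agents are applied alone or together to complex spheroids built with HUVEC and hMSC.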

[1] = curve of first compound, second compound 0.00949 µM
[2] = curve of first compound, second compound 0.03 µM
[3] = curve of first compound, second compound 0.0949 µM
[4] = curve of first compound, second compound 0.3 µM
[5] = curve of first compound, second compound 0.949 µM
[6] = curve of first compound, second compound 3 µM
[7] = second compound 0.00949 µM, first compound 0.0316 µM
[8] = second compound 0.00949 µM, first compound 0.1 µM
[9] = second compound 0.00949 µM, first compound 0.316 µM
[10] = second compound 0.00949 µM, first compound 1 µM
[11] = second compound 0.03 µM, first compound 0.0316 µM
[12] = second compound 0.03 µM, first compound 0.1 µM
[13] = second compound 0.03 µM, first compound 0.316 µM
[14] = second compound 0.03 µM, first compound 1 µM
[15] = second compound 0.0949 µM, first compound 0.0316 µM
[16] = second compound 0.0949 µM, first compound 0.1 µM
[17] = second compound 0.0949 µM, first compound 0.316 µM
[18] = second compound 0.0949 µM, first compound 1 µM
[19] = second compound 0.3 µM, first compound 0.0316 µM
[20] = second compound 0.3 µM, first compound 0.1 µM
[21] = second compound 0.3 µM, first compound 0.316 µM
[22] = second compound 0.3 µM, first compound 1 µM
[23] = second compound 0.949 µM, first compound 0.0316 µM
[24] = second compound 0.949 µM, first compound 0.1 µM
[25] = second compound 0.949 µM, first compound 0.316 µM
[26] = second compound 0.949 µM, first compound 1 µM
[27] = second compound 3 µM, first compound 0.0316 µM
[28] = second compound 3 µM, first compound 0.1 µM
[29] = second compound 3 µM, first compound 0.316 µM
[30] = second compound 3 µM, first compound 1 µM
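Also: spheroids exposed to compounds for 7 days.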
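For viability, T/C in this document: 100% = DMSO vehicle control wells.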

## O=C(c1cc(Cc2n[nH]c(=O)c3ccccc23)ccc1F)N1CCN(C(=O)C2CC2)CC1 + CCN1C(C(=O)NC23CCC(C(=O)O)(CC2)CC3)C(c2cccc(Cl)c2F)C2(C(=O)Nc3cc(Cl)ccc32)C12CCCCC2
[1]
  pIC50: < 5.00
[2]
  pIC50: < 5.00
[3]
  pIC50: < 5.00
[4]
  pIC50: < 5.00
[5]
  pIC50: < 5.00
[6]
  pIC50: < 5.00
[7]
  viability, T/C: 109%
[8]
  viability, T/C: 98.4%
[9]
  viability, T/C: 92.4%
[10]
  viability, T/C: 83.7%
Second compound 0.00949 µM, first compound 3.16 µM
  viability, T/C: 83.4%
Second compound 0.00949 µM, first compound 10 µM
  viability, T/C: 89.7%
[11]
  viability, T/C: 127%
[12]
  viability, T/C: 98.7%
[13]
  viability, T/C: 94.2%
[14]
  viability, T/C: 108%
Second compound 0.03 µM, first compound 3.16 µM
  viability, T/C: 82%
Second compound 0.03 µM, first compound 10 µM
  viability, T/C: 88.8%
[15]
  viability, T/C: 106%
[16]
  viability, T/C: 98.6%
[17]
  viability, T/C: 88.6%
[18]
  viability, T/C: 101%
Second compound 0.0949 µM, first compound 3.16 µM
  viability, T/C: 96.4%
Second compound 0.0949 µM, first compound 10 µM
  viability, T/C: 89.8%
[19]
  viability, T/C: 113%
[20]
  viability, T/C: 110%
[21]
  viability, T/C: 135%
[22]
  viability, T/C: 90.6%
Second compound 0.3 µM, first compound 3.16 µM
  viability, T/C: 89.3%
Second compound 0.3 µM, first compound 10 µM
  viability, T/C: 104%
[23]
  viability, T/C: 113%
[24]
  viability, T/C: 114%
[25]
  viability, T/C: 104%
[26]
  viability, T/C: 92.1%
Second compound 0.949 µM, first compound 3.16 µM
  viability, T/C: 89.2%
Second compound 0.949 µM, first compound 10 µM
  viability, T/C: 89%
[27]
  viability, T/C: 90.8%
[28]
  viability, T/C: 100%
[29]
  viability, T/C: 96.5%
[30]
  viability, T/C: 94.4%
Second compound 3 µM, first compound 3.16 µM
  viability, T/C: 104%
Second compound 3 µM, first compound 10 µM
  viability, T/C: 101%

## Cc1nc(N2CCC3(CC2)COC(C)C3N)c(CO)nc1Sc1ccnc(N)c1Cl (stereo not drawn) + Cc1c(S(C)(=O)=O)c(-c2cc(F)cc(N3CCN(c4ccc(NS(=O)(=O)c5ccc(NC(CCN6CCC(C(=O)OCCCP(=O)(O)O)CC6)CSc6ccccc6)c(S(=O)(=O)C(F)(F)F)c5)cc4)CC3)c2)c(-c2ccc(Cl)cc2)n1C(C)C
Curve of first compound, second compound 0.0316 µM
  pIC50: < 5.52
Curve of first compound, second compound 0.1 µM
  pIC50: 6.75
Curve of first compound, second compound 0.316 µM
  pIC50: > 8.02
Curve of first compound, second compound 1 µM
  pIC50: > 8.02
Curve of first compound, second compound 3.16 µM
  pIC50: > 8.02
Curve of first compound, second compound 10 µM
  pIC50: > 8.02
Second compound 0.0316 µM, first compound 0.00949 µM
  viability, T/C: 81.8%
Second compound 0.0316 µM, first compound 0.03 µM
  viability, T/C: 75%
Second compound 0.0316 µM, first compound 0.0949 µM
  viability, T/C: 57.6%
Second compound 0.0316 µM, first compound 0.3 µM
  viability, T/C: 61.2%
Second compound 0.0316 µM, first compound 0.949 µM
  viability, T/C: 58.6%
Second compound 0.0316 µM, first compound 3 µM
  viability, T/C: 51.7%
Second compound 0.1 µM, first compound 0.00949 µM
  viability, T/C: 77.4%
Second compound 0.1 µM, first compound 0.03 µM
  viability, T/C: 63.2%
Second compound 0.1 µM, first compound 0.0949 µM
  viability, T/C: 49.1%
Second compound 0.1 µM, first compound 0.3 µM
  viability, T/C: 54.4%
Second compound 0.1 µM, first compound 0.949 µM
  viability, T/C: 39.6%
Second compound 0.1 µM, first compound 3 µM
  viability, T/C: 39.9%
Second compound 0.316 µM, first compound 0.00949 µM
  viability, T/C: 42.6%
Second compound 0.316 µM, first compound 0.03 µM
  viability, T/C: 38.7%
Second compound 0.316 µM, first compound 0.0949 µM
  viability, T/C: 41.9%
Second compound 0.316 µM, first compound 0.3 µM
  viability, T/C: 29%
Second compound 0.316 µM, first compound 0.949 µM
  viability, T/C: 31.1%
Second compound 0.316 µM, first compound 3 µM
  viability, T/C: 22.3%
Second compound 1 µM, first compound 0.00949 µM
  viability, T/C: 26.3%
Second compound 1 µM, first compound 0.03 µM
  viability, T/C: 24.8%
Second compound 1 µM, first compound 0.0949 µM
  viability, T/C: 22.8%
Second compound 1 µM, first compound 0.3 µM
  viability, T/C: 26%
Second compound 1 µM, first compound 0.949 µM
  viability, T/C: 15.5%
Second compound 1 µM, first compound 3 µM
  viability, T/C: 14.1%
Second compound 3.16 µM, first compound 0.00949 µM
  viability, T/C: 16.7%
Second compound 3.16 µM, first compound 0.03 µM
  viability, T/C: 19.9%
Second compound 3.16 µM, first compound 0.0949 µM
  viability, T/C: 12.2%
Second compound 3.16 µM, first compound 0.3 µM
  viability, T/C: 12.5%
Second compound 3.16 µM, first compound 0.949 µM
  viability, T/C: 11.6%
Second compound 3.16 µM, first compound 3 µM
  viability, T/C: 8.25%
Second compound 10 µM, first compound 0.00949 µM
  viability, T/C: 12.8%
Second compound 10 µM, first compound 0.03 µM
  viability, T/C: 11.4%
Second compound 10 µM, first compound 0.0949 µM
  viability, T/C: 12.7%
Second compound 10 µM, first compound 0.3 µM
  viability, T/C: 7.14%
Second compound 10 µM, first compound 0.949 µM
  viability, T/C: 8.9%
Second compound 10 µM, first compound 3 µM
  viability, T/C: 8.72%

## COc1c(OCCCN2CCOCC2)ccc2c3n(c(=NC(=O)c4cnc(N)nc4)nc12)CCN3 + CCN1C(C(=O)NC23CCC(C(=O)O)(CC2)CC3)C(c2cccc(Cl)c2F)C2(C(=O)Nc3cc(Cl)ccc32)C12CCCCC2
[1]
  pIC50: 6.68
[2]
  pIC50: 6.44
[3]
  pIC50: 6.33
[4]
  pIC50: 6.49
[5]
  pIC50: 6.51
[6]
  pIC50: 6.54
Second compound 0.00949 µM, first compound 0.00316 µM
  viability, T/C: 102%
Second compound 0.00949 µM, first compound 0.01 µM
  viability, T/C: 79.9%
[7]
  viability, T/C: 62.5%
[8]
  viability, T/C: 65.2%
[9]
  viability, T/C: 51.9%
[10]
  viability, T/C: 28.3%
Second compound 0.03 µM, first compound 0.00316 µM
  viability, T/C: 93.4%
Second compound 0.03 µM, first compound 0.01 µM
  viability, T/C: 77.1%
[11]
  viability, T/C: 73.2%
[12]
  viability, T/C: 66.2%
[13]
  viability, T/C: 52.6%
[14]
  viability, T/C: 37.4%
Second compound 0.0949 µM, first compound 0.00316 µM
  viability, T/C: 79.1%
Second compound 0.0949 µM, first compound 0.01 µM
  viability, T/C: 77.9%
[15]
  viability, T/C: 59.5%
[16]
  viability, T/C: 77.7%
[17]
  viability, T/C: 53.9%
[18]
  viability, T/C: 37%
Second compound 0.3 µM, first compound 0.00316 µM
  viability, T/C: 95.5%
Second compound 0.3 µM, first compound 0.01 µM
  viability, T/C: 83.3%
[19]
  viability, T/C: 70.1%
[20]
  viability, T/C: 65.5%
[21]
  viability, T/C: 56%
[22]
  viability, T/C: 32.1%
Second compound 0.949 µM, first compound 0.00316 µM
  viability, T/C: 84%
Second compound 0.949 µM, first compound 0.01 µM
  viability, T/C: 90.6%
[23]
  viability, T/C: 80.5%
[24]
  viability, T/C: 67.6%
[25]
  viability, T/C: 50.6%
[26]
  viability, T/C: 32.7%
Second compound 3 µM, first compound 0.00316 µM
  viability, T/C: 82.1%
Second compound 3 µM, first compound 0.01 µM
  viability, T/C: 83.8%
[27]
  viability, T/C: 78.8%
[28]
  viability, T/C: 65%
[29]
  viability, T/C: 49.6%
[30]
  viability, T/C: 28.8%

## C=C(F)C(=O)N1CCN(c2nc(OCC3CCCN3C)nc3c2CCN(c2cccc4cccc(Cl)c24)C3)CC1CC#N (stereo not drawn)
Compound 0.0316 µM
  viability, T/C: 102% (2×) and 93.7%
Compound 0.1 µM
  viability, T/C: 93.2% and 115% and 87.3%
Compound 0.316 µM
  viability, T/C: 78.6% and 89.8% and 90.9%
Compound 1 µM
  viability, T/C: 89.2% and 87.9% and 95.7%
Compound 3.16 µM
  viability, T/C: 83.7% and 86.3% and 93.3%
Compound 10 µM
  viability, T/C: 0.33% and 0.31% and 0.93%
Curve of compound
  pIC50: 5.30 and 5.27
